Target: T1, EZH2 (Homo sapiens, UniProt Q15910)
T1 construct: Protocol of the Cellular Assay of Target Protein Degradation (VCaP Cells, ELISA); endogenous in cells; host or cells: VCaP cells
Assay: Cellular assay of target protein degradation (VCaP cells, ELISA)
Format: cell-based
Details: 4 hours, protein degradation range at indicated concentration (relative to DMSO control)
Protocol: Protocol of the Cellular Assay of Target Protein Degradation (VCaP Cells, ELISA).
For detection Cell Signaling PathScan Sandwich ELISA Catalog #12850 Lot 11 was used. VCaP cells were cultured in ATCC DMEM+ATCC FBS and plated 40,000/well 100 μl/well in RPMI P/S with 5% CSS Omega (bovine) serum into a 96 well plate. The cells were grown for a minimum of 3 days, dosed with compounds in 0.1% DMSO (diluted with 5% CSS) and incubated with aspiration for 4 hours. 100 μl of 1× Cell Signaling lysis buffer #9803 (36 mL dH2O+4 mL Cell Signaling lysis buffer) was added. The incubation was placed on cold room shaker for 10 minutes at speed 8-9. 5 μl to 100 μL of Diluent was transferred to ELISA plate (0.15 μg/mL−0.075 μg/mL) and stored at 4° C. overnight on cold room shaker speed 5 (gentle swirl) and then shaken next morning at 37° C. for 30 minutes. The preparation was washed 4×200 μl with ELISA wash buffer and aspirated with eight-channel aspirator. 100 μl/well of target protein detection antibody was added after, which the preparation was covered and shaken at 37° C. for 1 hour. 100 μl TMB was added, and the mixture was shaken for 5 min while under observation. When TMB turned light blue, 100 μl of Stop solution was added, and the mixture was shaken and read at 450 nm. Also read at 562 nm for background subtraction.

T1 sequence (Q15910 whole entry): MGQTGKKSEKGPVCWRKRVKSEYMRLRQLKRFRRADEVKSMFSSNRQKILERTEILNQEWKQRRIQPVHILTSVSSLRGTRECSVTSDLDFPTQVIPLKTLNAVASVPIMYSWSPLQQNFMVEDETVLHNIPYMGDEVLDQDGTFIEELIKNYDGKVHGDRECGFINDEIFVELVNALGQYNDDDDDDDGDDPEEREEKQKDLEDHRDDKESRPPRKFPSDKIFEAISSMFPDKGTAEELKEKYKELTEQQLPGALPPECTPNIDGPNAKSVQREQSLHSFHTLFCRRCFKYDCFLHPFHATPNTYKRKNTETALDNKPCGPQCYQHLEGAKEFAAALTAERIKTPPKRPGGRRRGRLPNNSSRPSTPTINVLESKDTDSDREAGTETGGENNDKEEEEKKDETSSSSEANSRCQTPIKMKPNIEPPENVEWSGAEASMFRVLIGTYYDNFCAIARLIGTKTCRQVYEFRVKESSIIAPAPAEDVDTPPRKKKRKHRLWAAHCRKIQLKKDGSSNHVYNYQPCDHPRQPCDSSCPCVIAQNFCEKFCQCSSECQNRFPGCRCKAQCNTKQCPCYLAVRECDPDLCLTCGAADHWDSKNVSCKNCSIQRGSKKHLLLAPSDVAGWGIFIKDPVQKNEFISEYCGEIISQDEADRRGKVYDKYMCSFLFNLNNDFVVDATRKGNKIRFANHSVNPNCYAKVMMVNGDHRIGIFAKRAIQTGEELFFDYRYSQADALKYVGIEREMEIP
T1 sequence (O75530 whole entry partner): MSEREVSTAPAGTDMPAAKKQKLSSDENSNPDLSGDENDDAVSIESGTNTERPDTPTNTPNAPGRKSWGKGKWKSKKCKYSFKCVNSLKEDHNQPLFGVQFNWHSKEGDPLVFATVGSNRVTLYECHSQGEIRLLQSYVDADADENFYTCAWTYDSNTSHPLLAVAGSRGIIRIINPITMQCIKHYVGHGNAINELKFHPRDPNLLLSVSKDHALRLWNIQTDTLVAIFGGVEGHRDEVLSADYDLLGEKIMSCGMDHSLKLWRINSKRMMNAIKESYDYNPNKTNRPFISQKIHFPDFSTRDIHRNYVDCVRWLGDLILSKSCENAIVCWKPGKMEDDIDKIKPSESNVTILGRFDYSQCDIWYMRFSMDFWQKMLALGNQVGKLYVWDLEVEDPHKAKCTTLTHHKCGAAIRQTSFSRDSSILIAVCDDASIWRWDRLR
T1 sequence (Q15022 whole entry partner): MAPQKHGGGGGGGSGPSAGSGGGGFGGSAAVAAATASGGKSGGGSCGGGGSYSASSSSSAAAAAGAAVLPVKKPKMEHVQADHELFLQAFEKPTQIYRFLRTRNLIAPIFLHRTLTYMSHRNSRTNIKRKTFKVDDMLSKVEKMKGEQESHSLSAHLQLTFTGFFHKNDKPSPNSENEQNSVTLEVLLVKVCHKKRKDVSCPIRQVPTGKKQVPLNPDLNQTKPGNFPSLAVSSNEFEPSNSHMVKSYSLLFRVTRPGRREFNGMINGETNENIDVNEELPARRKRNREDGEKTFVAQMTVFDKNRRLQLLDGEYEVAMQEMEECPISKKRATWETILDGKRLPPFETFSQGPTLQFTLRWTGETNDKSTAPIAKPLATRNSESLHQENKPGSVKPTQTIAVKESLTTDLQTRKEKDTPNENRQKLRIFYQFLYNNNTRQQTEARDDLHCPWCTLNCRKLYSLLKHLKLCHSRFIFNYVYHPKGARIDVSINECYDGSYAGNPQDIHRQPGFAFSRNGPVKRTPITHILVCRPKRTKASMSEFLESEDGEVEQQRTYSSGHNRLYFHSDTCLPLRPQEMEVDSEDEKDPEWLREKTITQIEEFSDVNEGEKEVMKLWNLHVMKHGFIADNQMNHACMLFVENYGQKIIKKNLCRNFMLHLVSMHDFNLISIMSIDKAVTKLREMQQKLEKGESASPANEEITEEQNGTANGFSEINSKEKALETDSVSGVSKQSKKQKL

SMILES | percent target protein degradation class
CCN(c1cc(-c2ccc(OCCCCOCCCOc3cc(-c4scnc4C)ccc3CNC(=O)[C@@H]3C[C@@H](O)CN3C(=O)[C@H](C(C)C)N3Cc4ccccc4C3=O)cc2)cc(C(=O)NCc2c(C)cc(C)[nH]c2=O)c1C)C1CCOCC1 [Compound 40, (2S,4R)-N-{[2-(3-{4-[4-(3-{[(4,6-dimethyl-2-oxo-1,2-dihydropyridin-3-yl)methyl]carbamoyl}-5-[ethyl(oxan-4-yl)amino]-4-methylphenyl)phenoxy]butoxy}propoxy)-4-(4-methyl-1,3-thiazol-5-yl)phenyl]methyl}-4-hydroxy-1-[(2S)-3-methyl-2-(1-oxo-2,3-dihydro-1H-isoindol-2-yl)butanoyl]pyrrolidine-2-carboxamide] | B (B = degradation between 30% and 60%)
CCN(c1cc(-c2ccc(OCCOCCOCCOc3ccc(CCN4CC[C@@H]5CCN(C(=O)[C@@H](NC(=O)[C@H](C)NC)C6CCCCC6)[C@@H]5C4)cc3)cc2)cc(C(=O)NCc2c(C)cc(C)[nH]c2=O)c1C)C1CCOCC1 (racemic) [Compound 26, 5-[4-(2-{2-[2-(4-{2-[(3aR,7aS)-1-[(2S)-2-cyclohexyl-2-[(2S)-2-(methylamino)propanamido]acetyl]-octahydro-1H-pyrrolo[2,3-c]pyridin-6-yl]ethyl}phenoxy)ethoxy]ethoxy}ethoxy)phenyl]-N-[(4,6-dimethyl-2-oxo-1,2-dihydropyridin-3-yl)methyl]-3-[ethyl(oxan-4-yl)amino]-2-methylbenzamide] | B (B = degradation between 30% and 60%)
CCN(c1cc(-c2ccc(OCCOCCOCCOCC(=O)N[C@H](C(=O)N3C[C@H](O)C[C@H]3C(=O)NCc3ccc(-c4scnc4C)cc3)C(C)(C)C)cc2)cc(C(=O)NCc2c(C)cc(C)[nH]c2=O)c1C)C1CCOCC1 [Compound 13, (2S,4R)-1-[(2S)-2-{1-[4-(3-{[(4,6-dimethyl-2-oxo-1,2-dihydropyridin-3-yl)methyl]carbamoyl}-5-[ethyl(oxan-4-yl)amino]-4-methylphenyl)phenyl]-1,4,7,10-tetraoxadodecan-12-amido}-3,3-dimethylbutanoyl]-4-hydroxy-N-{[4-(4-methyl-1,3-thiazol-5-yl)phenyl]methyl}pyrrolidine-2-carboxamide] | B (B = degradation between 30% and 60%)
CCN(c1cc(-c2cccc(OCCOCCOCCOCCOCCOCCNc3cccc4c3C(=O)N(C3CCC(=O)NC3=O)C4=O)c2)cc(C(=O)NCc2c(C)cc(C)[nH]c2=O)c1C)C1CCOCC1 (stereo not drawn) [Compound 21, N-[(4,6-dimethyl-2-oxo-1,2-dihydropyridin-3-yl)methyl]-5-[3-({1-[2-(2,6-dioxopiperidin-3-yl)-1,3-dioxo-2,3-dihydro-1H-isoindol-4-yl]-4,7,10,13,16-pentaoxa-1-azaoctadecan-18-yl}oxy)phenyl]-3-[ethyl(oxan-4-yl)amino]-2-methylbenzamide] | B (B = degradation between 30% and 60%)
CCN(c1cc(-c2ccc(N3CCN(CCCCOCC(=O)N[C@H](C(=O)N4C[C@H](O)C[C@H]4C(=O)N[C@@H](C)c4ccc(-c5scnc5C)cc4)C(C)(C)C)CC3)cc2)cc(C(=O)NCc2c(C)cc(C)[nH]c2=O)c1C)C1CCOCC1 [Compound 59, (2S,4R)-1-((S)-2-(2-(4-(4-(3′-(((4,6-dimethyl-2-oxo-1,2-dihydropyridin-3-yl)methyl)carbamoyl)-5′-(ethyl(tetrahydro-2H-pyran-4-yl)amino)-4′-methyl-[1,1′-biphenyl]-4-yl)piperazin-1-yl)butoxy)acetamido)-3,3-dimethylbutanoyl)-4-hydroxy-N-((S)-1-(4-(4-methylthiazol-5-yl)phenyl)ethyl)pyrrolidine-2-carboxamide] | B (B = degradation between 30% and 60%)

Second part, the molecule after the results:

percent target protein degradation class | SMILES
B (B = degradation between 30% and 60%) | CCN(c1cc(-c2ccc(OCCOCCOc3cc(-c4scnc4C)ccc3CNC(=O)[C@@H]3C[C@@H](O)CN3C(=O)[C@H](C(C)C)N3Cc4ccccc4C3=O)cc2)cc(C(=O)NCc2c(C)cc(C)[nH]c2=O)c1C)C1CCOCC1 [Compound 38, (2S,4R)-N-{[2-(2-{2-[4-(3-{[(4,6-dimethyl-2-oxo-1,2-dihydropyridin-3-yl)methyl]carbamoyl}-5-[ethyl(oxan-4-yl)amino]-4-methylphenyl)phenoxy]ethoxy}ethoxy)-4-(4-methyl-1,3-thiazol-5-yl)phenyl]methyl}-4-hydroxy-1-[(2S)-3-methyl-2-(1-oxo-2,3-dihydro-1H-isoindol-2-yl)butanoyl]pyrrolidine-2-carboxamide]
B (B = degradation between 30% and 60%) | CCN(c1cc(-c2ccc(OCCOc3cc(-c4scnc4C)ccc3CNC(=O)[C@@H]3C[C@@H](O)CN3C(=O)[C@H](C(C)C)N3Cc4ccccc4C3=O)cc2)cc(C(=O)NCc2c(C)cc(C)[nH]c2=O)c1C)C1CCOCC1 [Compound 64, N-[(2-{2-[4-(3-{[(4,6-dimethyl-2-oxo-1,2-dihydropyridin-3-yl)methyl]carbamoyl}-5-[ethyl(oxan-4-yl)amino]-4-methylphenyl)phenoxy]ethoxy}-4-(4-methyl-1,3-thiazol-5-yl)phenyl)methyl]-4-hydroxy-1-[3-methyl-2-(1-oxo-2,3-dihydro-1H-isoindol-2-yl)butanoyl]pyrrolidine-2-carboxamide]
B (B = degradation between 30% and 60%) | CCN(c1cc(-c2ccc(OCCCOCCCOc3ccc4c(c3)C(=O)N(C3CCC(=O)NC3=O)C4=O)cc2)cc(C(=O)NCc2c(C)cc(C)[nH]c2=O)c1C)C1CCOCC1 (stereo not drawn) [Compound 62, N-[(4,6-dimethyl-2-oxo-1,2-dihydropyridin-3-yl)methyl]-5-{4-[3-(3-{[2-(2,6-dioxopiperidin-3-yl)-1,3-dioxo-2,3-dihydro-1H-isoindol-5-yl]oxy}propoxy)propoxy]pheny 1}-3-[ethyl(oxan-4-yl)amino]-2-methylbenzamide]
B (B = degradation between 30% and 60%) | CCN(c1cc(-c2ccc(CCCOCCOCC(=O)N[C@H](C(=O)N3C[C@H](O)C[C@H]3C(=O)NCc3ccc(-c4scnc4C)cc3)C(C)(C)C)cc2)cc(C(=O)NCc2c(C)cc(C)[nH]c2=O)c1C)C1CCOCC1 [Compound 47, (2S,4R)-1-[(2S)-2-[2-(2-{3-[4-(3-{[(4,6-dimethyl-2-oxo-1,2-dihydropyridin-3-yl)methyl]carbamoyl}-5-[ethyl(oxan-4-yl)amino]-4-methylphenyl)phenyl]propoxy}ethoxy)acetamido]-3,3-dimethylbutanoyl]-4-hydroxy-N-{[4-(4-methyl-1,3-thiazol-5-yl)phenyl]methyl}pyrrolidine-2-carboxamide]
B (B = degradation between 30% and 60%) | CCN(c1cc(-c2ccc(CCCOCCCCC(=O)N[C@H](C(=O)N3C[C@H](O)C[C@H]3C(=O)NCc3ccc(-c4scnc4C)cc3)C(C)(C)C)cc2)cc(C(=O)NCc2c(C)cc(C)[nH]c2=O)c1C)C1CCOCC1 [Compound 44, (2S,4R)-1-[(2S)-2-(5-{3-[4-(3-{[(4,6-dimethyl-2-oxo-1,2-dihydropyridin-3-yl)methyl]carbamoyl}-5-[ethyl(oxan-4-yl)amino]-4-methylphenyl)phenyl]propoxy}pentanamido)-3,3-dimethylbutanoyl]-4-hydroxy-N-{[4-(4-methyl-1,3-thiazol-5-yl)phenyl]methyl}pyrrolidine-2-carboxamide]
B (B = degradation between 30% and 60%) | CCN(c1cc(-c2ccc(OCCOCCCCCOc3cc(-c4scnc4C)ccc3CNC(=O)[C@@H]3C[C@@H](O)CN3C(=O)[C@H](C(C)C)N3Cc4ccccc4C3=O)cc2)cc(C(=O)NCc2c(C)cc(C)[nH]c2=O)c1C)C1CCOCC1 [Compound 49, (2S,4R)-N-({2-[(5-{2-[4-(3-{[(4,6-dimethyl-2-oxo-1,2-dihydropyridin-3-yl)methyl]carbamoyl}-5-[ethyl(oxan-4-yl)amino]-4-methylphenyl)phenoxy]ethoxy}pentyl)oxy]-4-(4-methyl-1,3-thiazol-5-yl)phenyl}methyl)-4-hydroxy-1-[(2S)-3-methyl-2-(1-oxo-2,3-dihydro-1H-isoindol-2-yl)butanoyl]pyrrolidine-2-carboxamide]
A (A = degradation more than 60%) | CCN(c1cc(-c2ccc(OCCOCCOCCOc3cc(-c4scnc4C)ccc3CNC(=O)[C@@H]3C[C@@H](O)CN3C(=O)[C@H](C(C)C)N3Cc4ccccc4C3=O)cc2)cc(C(=O)NCc2c(C)cc(C)[nH]c2=O)c1C)C1CCOCC1 [Compound 37, (2S,4R)-N-({2-[2-(2-{2-[4(3-{[(4,6-dimethyl-2-oxo-1,2-dihydropyridin-3-yl)methyl]carbamoyl}-5-[ethyl(oxan-4-yl)amino]-4-methylphenyl)phenoxy]ethoxy}ethoxy)ethoxy]-4-(4-methyl-1,3-thiazol-5-yl)phenyl}methyl)-4-hydroxy-1-[(2S)-3-methyl-2-(1-oxo-2,3-dihydro-1H-isoindol-2-yl)butanoyl]pyrrolidine-2-carboxamide]
